Assay results published in patent publication US20050003029A1, “UTILIZATION OF RUTINS AND AESCINS IN THE TREATMENT OF OCULAR CIRCULATORY DISTURBANCES” (priority 2001, published 2005).

System: retinal hemorrhages and vascular leakages
Test: Efficacy case examples: oral therapy of patients with retinal hemorrhages and vascular leakages, detected by fluorescence angiography
Assay type: in vivo, human
Details: orally daily
From the text: (§1) patient with severe visual impairment.
2 relatively small intraretinal hemorrhages on the retina existed, further 8 vascular leakages stainable with fluorescein sodium and detectable using fluorescence angiography. The finding existed for 4 months with the tendency to worsen. The basic disease present was a generalized sclerotic vascular complaint.
patient with suddenly commencing visual impairment, which had existed for 5 months.
A relatively large intraretinal strip hemorrhage existed as a result of a branch vein thrombosis, further 3 vascular leakages detectable by fluorescence angiography. The basic disease present was latent diabetes mellitus.
as §1
1 relatively large and 2 smaller retinal hemorrhages existed; further three vascular leakages which were detectable using fluorescence angiography. The basic disease was a generalized vascular complaint. The finding existed for 5 months with the tendency for increasing worsening.
as §1
A large subretinal hemorrhage existed, further 2 vascular leakages detectable by fluorescence angiography. A risk factor to be seen was the taking for years of a hormonal anticontraceptive.

## CC1OC(OCC2OC(Oc3c(-c4ccc(OCCO)c(OCCO)c4)oc4cc(OCCO)cc(O)c4c3=O)C(O)C(O)C2O)C(O)C(O)C1O (stereo not drawn) [troxerutin, 3′,4′,7-tris-O-(β-hydroxyethyl)rutin]
Case example 1, after 2 weeks
  leakages sealed: 1 leakages
Case example 1, after 4 weeks
  leakages sealed (total): 3 leakages
Case example 1, four-week therapy, 2 relatively small hemorrhages
  intraretinal hemorrhages (status): unchanged
Case example 2, three-week therapy, 3 leakages before
  vascular leakages (status): unchanged
Case example 2, three-week therapy, measured by the starting size
  resorption of intraretinal strip hemorrhage: 10%
Case example 3, patient, three-week therapy
  resorption of a small hemorrhage: low-grade beginning of resorption
Case example 3, three-week therapy
  leakages sealed: 1 leakages
Case example 4, 2 leakages before
  leakages sealed: 1 leakages
Case example 4, combination three weeks, measured by the starting size
  resorption of the large subretinal hemorrhage: approximately 5%
